Test results taken from ChEMBL document CHEMBL1136423, “Phosphate ester serum albumin affinity tags greatly improve peptide half-life in vivo” (Bioorg Med Chem Lett, 2003).
Where a SMILES comes first, the peptide text is derived from it. Bridges are numbered along the chain shown (N, C = ends). The star is where a group is joined. X3 = O=C(CCCCCOP(=O)(O)OC1CCC(c2ccccc2)(c2ccccc2)CC1)*; X4 = O=C(CCC(=O)*)NS(=O)(=O)c1ccc2ccccc2c1; X2 = O=C(CCCCCOP(=O)(O)Oc1ccc2ccccc2c1)*; X1 = O=C(CCCCCOP(=O)(O)OCCCCCc1ccccc1)*

Assays:
Coagulation factor VII [1] = molecular target: T1, Coagulation factor VII (Homo sapiens, UniProt P08709); assay: Inhibitory activity for the compound against coagulation factor VIIa in presence of 0.1% rabbit serum albumin
T1 sequence (P08709 whole entry): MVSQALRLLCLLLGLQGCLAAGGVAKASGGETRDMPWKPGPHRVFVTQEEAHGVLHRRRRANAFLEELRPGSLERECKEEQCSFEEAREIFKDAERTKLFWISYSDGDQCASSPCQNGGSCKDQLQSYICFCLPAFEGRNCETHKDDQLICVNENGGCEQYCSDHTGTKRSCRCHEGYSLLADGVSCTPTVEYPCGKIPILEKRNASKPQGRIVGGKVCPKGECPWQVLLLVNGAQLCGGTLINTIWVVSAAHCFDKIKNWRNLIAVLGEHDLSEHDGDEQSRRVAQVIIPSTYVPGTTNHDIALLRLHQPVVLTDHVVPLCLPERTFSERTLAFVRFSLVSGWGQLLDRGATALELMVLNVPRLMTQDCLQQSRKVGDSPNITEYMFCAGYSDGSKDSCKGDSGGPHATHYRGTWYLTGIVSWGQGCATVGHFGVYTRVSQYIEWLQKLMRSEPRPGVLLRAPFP

[2] = Clearance was measured at the concentration of 1.11 mg/kg in rabbit blood sample; assay type: ADME, organism-based, Oryctolagus cuniculus; set-up: dose 1.11 mg/kg
Coagulation factor VII [3] = molecular target: T1, Coagulation factor VII; assay: Inhibitory activity for the compound against coagulation factor VIIa in presence of 1% ovalbumin
Albumin = Albumin (Homo sapiens, UniProt P02768); assay: Compound was measured for its retention time in human serum albumin;where k`=tt-t0/t0; tt=retention time of compound and t0=retention time of DMSO
Sequence of Albumin (P02768 whole entry): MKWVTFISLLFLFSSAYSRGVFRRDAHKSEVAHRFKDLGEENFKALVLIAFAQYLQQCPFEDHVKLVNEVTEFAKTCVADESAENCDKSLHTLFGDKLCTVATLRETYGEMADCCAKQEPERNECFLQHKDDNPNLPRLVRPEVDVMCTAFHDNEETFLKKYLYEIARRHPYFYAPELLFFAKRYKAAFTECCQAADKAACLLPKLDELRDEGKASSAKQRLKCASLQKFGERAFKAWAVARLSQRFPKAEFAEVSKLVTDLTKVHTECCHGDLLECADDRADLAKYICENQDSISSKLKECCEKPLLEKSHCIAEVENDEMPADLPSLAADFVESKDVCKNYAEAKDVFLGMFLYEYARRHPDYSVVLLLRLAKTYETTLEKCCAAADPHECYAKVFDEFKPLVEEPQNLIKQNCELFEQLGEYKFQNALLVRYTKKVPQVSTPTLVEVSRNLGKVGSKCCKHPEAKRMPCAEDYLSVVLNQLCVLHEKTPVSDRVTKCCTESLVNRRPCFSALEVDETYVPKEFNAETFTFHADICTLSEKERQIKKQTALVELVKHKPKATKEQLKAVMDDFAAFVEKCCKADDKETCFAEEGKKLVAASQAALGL

Coagulation factor VII [4] = molecular target: T1, Coagulation factor VII; assay: Inhibitory activity for the compound against coagulation factor VIIa in presence of 0.1% human serum albumin
[5] = Half-life was measured at the concentration of 1.11 mg/kg in rabbit blood sample; assay type: ADME, organism-based, Oryctolagus cuniculus; set-up: dose 1.11 mg/kg
[6] = Half-life was measured at the concentration of 2.0 mg/kg in rabbit blood sample; assay type: ADME, organism-based, Oryctolagus cuniculus; set-up: dose 2 mg/kg
[7] = Clearance was measured at the concentration of 2.0 mg/kg in rabbit blood sample; assay type: ADME, organism-based, Oryctolagus cuniculus; set-up: dose 2 mg/kg

| SMILES | IC50 (Coagulation factor VII [1]) [nM] | clearance [2] [mL/min/kg] | IC50 (Coagulation factor VII [3]) [nM] | k'/k'+1 (Albumin) | IC50 (Coagulation factor VII [4]) [nM] | half-life [5] [min] | half-life [6] [min] | clearance [7] [mL/min/kg] |
| --- | --- | --- | --- | --- | --- | --- | --- | --- |
| CC[C@H](C)[C@@H]1NC(=O)[C@H](CCCN=C(N)N)NC(=O)[C@@H]2CCCN2C(=O)[C@H](CC(N)=O)NC(=O)[C@H](CC(=O)O)NC(=O)[C@@H](NC(=O)[C@H](CC(C)C)NC(=O)[C@H](C)NC(C)=O)CSSC[C@@H](C(=O)N[C@@H](CCC(N)=O)C(=O)N[C@@H](Cc2ccccc2)C(=O)N[C@H](C(=O)N[C@@H](CCC(=O)O)C(=O)NCC(N)=O)C(C)C)NC(=O)[C@H](Cc2ccc(O)cc2)NC(=O)[C@H](Cc2c[nH]c3ccccc23)NC(=O)[C@H](CCCN=C(N)N)NC(=O)[C@H](CC(=O)O)NC1=O (Ac-ALCDNPRIDRWYCQFVEG-NH2; disulfide 3-13) | 9.7 | 26.8 | 9.2 | 0.21 | 11 | 4.18 | – | – |
| CC[C@H](C)[C@@H]1NC(=O)[C@H](CCCN=C(N)N)NC(=O)[C@@H]2CCCN2C(=O)[C@H](CC(N)=O)NC(=O)[C@H](CC(=O)O)NC(=O)[C@@H](NC(=O)[C@H](CC(C)C)NC(=O)[C@H](C)NC(=O)CCCCCOP(=O)(O)OCCCCCc2ccccc2)CSSC[C@@H](C(=O)N[C@@H](CCC(N)=O)C(=O)N[C@@H](Cc2ccccc2)C(=O)N[C@H](C(=O)N[C@@H](CCC(=O)O)C(=O)NCC(N)=O)C(C)C)NC(=O)[C@H](Cc2ccc(O)cc2)NC(=O)[C@H](Cc2c[nH]c3ccccc23)NC(=O)[C@H](CCCN=C(N)N)NC(=O)[C@H](CC(=O)O)NC1=O (X1-ALCDNPRIDRWYCQFVEG-NH2; disulfide 3-13) | 22 | – | 2 | 0.92 | 2.4 | – | 79.1 | 0.505 |
| CC[C@H](C)[C@@H]1NC(=O)[C@H](CCCN=C(N)N)NC(=O)[C@@H]2CCCN2C(=O)[C@H](CC(N)=O)NC(=O)[C@H](CC(=O)O)NC(=O)[C@@H](NC(=O)[C@H](CC(C)C)NC(=O)[C@H](C)NC(=O)CCCCCOP(=O)(O)Oc2ccc3ccccc3c2)CSSC[C@@H](C(=O)N[C@@H](CCC(N)=O)C(=O)N[C@@H](Cc2ccccc2)C(=O)N[C@H](C(=O)N[C@@H](CCC(=O)O)C(=O)NCC(N)=O)C(C)C)NC(=O)[C@H](Cc2ccc(O)cc2)NC(=O)[C@H](Cc2c[nH]c3ccccc23)NC(=O)[C@H](CCCN=C(N)N)NC(=O)[C@H](CC(=O)O)NC1=O (X2-ALCDNPRIDRWYCQFVEG-NH2; disulfide 3-13) | 9.2 | – | 1.9 | 0.92 | 2 | – | 34.8 | 0.707 |
| CC[C@H](C)[C@@H]1NC(=O)[C@H](CCCN=C(N)N)NC(=O)[C@@H]2CCCN2C(=O)[C@H](CC(N)=O)NC(=O)[C@H](CC(=O)O)NC(=O)[C@@H](NC(=O)[C@H](CC(C)C)NC(=O)[C@H](C)NC(=O)CCCCCOP(=O)(O)OC2CCC(c3ccccc3)(c3ccccc3)CC2)CSSC[C@@H](C(=O)N[C@@H](CCC(N)=O)C(=O)N[C@@H](Cc2ccccc2)C(=O)N[C@H](C(=O)N[C@@H](CCC(=O)O)C(=O)NCC(N)=O)C(C)C)NC(=O)[C@H](Cc2ccc(O)cc2)NC(=O)[C@H](Cc2c[nH]c3ccccc23)NC(=O)[C@H](CCCN=C(N)N)NC(=O)[C@H](CC(=O)O)NC1=O (X3-ALCDNPRIDRWYCQFVEG-NH2; disulfide 3-13) | 90 | – | 4 | 0.78 | 3.4 | – | 222 | 0.185 |
| CC[C@H](C)[C@@H]1NC(=O)[C@H](CCCN=C(N)N)NC(=O)[C@@H]2CCCN2C(=O)[C@H](CC(N)=O)NC(=O)[C@H](CC(=O)O)NC(=O)[C@@H](NC(=O)[C@H](CC(C)C)NC(=O)[C@H](C)NC(=O)CCC(=O)NS(=O)(=O)c2ccc3ccccc3c2)CSSC[C@@H](C(=O)N[C@@H](CCC(N)=O)C(=O)N[C@@H](Cc2ccccc2)C(=O)N[C@H](C(=O)N[C@@H](CCC(=O)O)C(=O)NCC(N)=O)C(C)C)NC(=O)[C@H](Cc2ccc(O)cc2)NC(=O)[C@H](Cc2c[nH]c3ccccc23)NC(=O)[C@H](CCCN=C(N)N)NC(=O)[C@H](CC(=O)O)NC1=O (X4-ALCDNPRIDRWYCQFVEG-NH2; disulfide 3-13) | 24 | – | 3.6 | 0.97 | 2.5 | – | 30 | 1.64 |
